Assay results from the supplement of paper PMC11208160.

Assay: recombinant UMI read abundance after kanamycin selection (control-corrected) (log10(CPM+1)); higher = more efficient recombination; extreme values may be limits of the assay; sequences stand for … in AGTGCAGAGAAAATCGGCCAGTTTTCTCTGCCTGCAGTCCGCATGCCGTGGGACCCCTTGGGTTCTAACCTGTTGCCTAGATTTATGCAGCGGACTGCCTTTCTCCCAAAGTGATAAACCGG…AGGTTGGTTTCACT; site = the 11-nt donor
In short: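 Each donor and donor-binding-loop pair was tracked by a 12-nt UMI on a plasmid carrying a promoterless kanamycin gene. With a second plasmid supplying a fixed target and T7-inducible IS621 bridge recombinase, the pool was plated in Escherichia coli on IPTG (0.07 mM) plus kanamycin or unselected. Sequencing of recombinant UMIs across the donor–target junction gave counts expressed as log10(CPM+1) after replicate averaging and control-derived scaling.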
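Further: IS621 bridge recombinase in Escherichia coli cells against a fixed T5 target plasmid.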

Compared with “GGTAAGTCATGGACCGGTTTTCCCGGTAATCCGTATTTGTT (site GGTAAGTCTAA)”, “GGTAAGTCATGGACCGGTTTTCCCGGTAATCCGTATTTGTT (site GGTACGTCTAA)” is lower in “recombinant UMI read abundance (log10)” value: 1.98 for the first, 0.00407 for the second.

“GGTAAGTCATGGACCGGTTTTCCCGGTAATCCGTATTTGTT (site GGTAGGTCTAA)” and “GGTAAGTCATGGACCGGTTTTCCCGGTAATCCGTATTTGTT (site GGTATGTCTAA)” are within 0.2 log units of each other in “recombinant UMI read abundance (log10)” value: 0.00944 for the first, 0.00986 for the second.

Going from “GGTAATCCATGGACCGGTTTTCCCGGTAATCCGTATTTGAA (site GGAAATCCTTT)” to “GGTAATCCATGGACCGGTTTTCCCGGTAATCCGTATTTGAA (site GGCAATCCTTT)”, the “recombinant UMI read abundance (log10)” value rises from 0.00275 to 0.58.

First: GGTAATCCATGGACCGGTTTTCCCGGTAATCCGTATTTGAA (site GGGAATCCTTT)
Second: GGTAATCCATGGACCGGTTTTCCCGGTAATCCGTATTTGAA (site GGTAATCCTTT)
The “recombinant UMI read abundance (log10)” value of the first is lower: 0.00622 for the first, 0.27 for the second.

Compared with “GGTACATCATGGACCGGTTTTCCCGGTAATCCGTATTTGAG (site GGTACATCTCT)”, “GGTACGACATGGACCGGTTTTCCCGGTAATCCGTATTTGTT (site GGTACGACTAA)” is lower in “recombinant UMI read abundance (log10)” value: 0.66 for the first, 0.444 for the second.

“GGTACGACATGGACCGGTTTTCCCGGTAATCCGTATTTGTT (site GGTACGCCTAA)” and “GGTACGACATGGACCGGTTTTCCCGGTAATCCGTATTTGTT (site GGTACGGCTAA)” are within 0.2 log units of each other in “recombinant UMI read abundance (log10)” value: 0.0177 for the first, 0.0185 for the second.

“GGTACGACATGGACCGGTTTTCCCGGTAATCCGTATTTGTT (site GGTACGTCTAA)” and “GGTACGTCATGGACCGGTTTTCCCGGTAATCCGTATTTGTC (site GGTACGTCTAA)” are within 0.2 log units of each other in “recombinant UMI read abundance (log10)” value: 0.0179 for the first, 0.0158 for the second.

“GGTACGTCATGGACCGGTTTTCCCGGTAATCCGTATTTGTC (site GGTACGTCTCA)” and “GGTACGTCATGGACCGGTTTTCCCGGTAATCCGTATTTGTC (site GGTACGTCTGA)” are within 0.2 log units of each other in “recombinant UMI read abundance (log10)” value: 0.0113 for the first, 0.0103 for the second.

“GGTACGTCATGGACCGGTTTTCCCGGTAATCCGTATTTGTC (site GGTACGTCTTA)” and “GGTATGCCATGGACCGGTTTTCCCGGTAATCCGTATTTGAC (site GGTATGCCTGT)” are within 0.2 log units of each other in “recombinant UMI read abundance (log10)” value: 0.0125 for the first, 0 for the second.

Going from “GGTATTTCATGGACCGGTTTTCCCGGTAATCCGTATTTGAA (site GGTATTTCTTT)” to “GGTCAAGCATGGACCGGTTTTCCCGGTAATCCGTATTTGGC (site GGTCAAGCTGC)”, the “recombinant UMI read abundance (log10)” value rises from 0 to 1.47.

“GGTCCATCATGGACCGGTTTTCCCGGTAATCCGTATTTGTA (site GGTCCAACTTA)” and “GGTCCATCATGGACCGGTTTTCCCGGTAATCCGTATTTGTA (site GGTCCACCTTA)” are within 0.2 log units of each other in “recombinant UMI read abundance (log10)” value: 0.016 for the first, 0.0104 for the second.

First: GGTCCATCATGGACCGGTTTTCCCGGTAATCCGTATTTGTA (site GGTCCAGCTTA)
Second: GGTCCATCATGGACCGGTTTTCCCGGTAATCCGTATTTGTA (site GGTCCATCTTA)
The “recombinant UMI read abundance (log10)” value of the first is lower: 0.00308 for the first, 0.459 for the second.

“GGTCCCACATGGACCGGTTTTCCCGGTAATCCGTATTTGTA (site GGTCCAACTTA)” and “GGTCCCACATGGACCGGTTTTCCCGGTAATCCGTATTTGTA (site GGTCCCACTTA)” are within 0.2 log units of each other in “recombinant UMI read abundance (log10)” value: 0 for the first, 0.0202 for the second.

“GGTCCCACATGGACCGGTTTTCCCGGTAATCCGTATTTGTA (site GGTCCGACTTA)” and “GGTCCCACATGGACCGGTTTTCCCGGTAATCCGTATTTGTA (site GGTCCTACTTA)” are within 0.2 log units of each other in “recombinant UMI read abundance (log10)” value: 0.0061 for the first, 0.0287 for the second.

First: GGTCGATCATGGACCGGTTTTCCCGGTAATCCGTATTTGCG (site GGTCGATCTCG)
Second: GGTCGTCCATGGACCGGTTTTCCCGGTAATCCGTATTTGTA (site GGTCGTCCTTA)
The “recombinant UMI read abundance (log10)” value of the first is higher: 0.598 for the first, 0.0245 for the second.

“GGTCTAACATGGACCGGTTTTCCCGGTAATCCGTATTTGTA (site GGTCAAACTTA)” and “GGTCTAACATGGACCGGTTTTCCCGGTAATCCGTATTTGTA (site GGTCCAACTTA)” are within 0.2 log units of each other in “recombinant UMI read abundance (log10)” value: 0.0026 for the first, 0 for the second.

Going from “GGTCTAACATGGACCGGTTTTCCCGGTAATCCGTATTTGTA (site GGTCGAACTTA)” to “GGTCTAACATGGACCGGTTTTCCCGGTAATCCGTATTTGTA (site GGTCTAACTTA)”, the “recombinant UMI read abundance (log10)” value rises from 0.0128 to 0.607.

“GGTCTACCATGGACCGGTTTTCCCGGTAATCCGTATTTGCA (site GGTCTACCTTG)” and “GGTGCTGCATGGACCGGTTTTCCCGGTAATCCGTATTTGTG (site GGTGCTGCTCA)” are within 0.2 log units of each other in “recombinant UMI read abundance (log10)” value: 0 for the first, 0.0597 for the second.

Compared with “GGTGGTGCATGGACCGGTTTTCCCGGTAATCCGTATTTGAC (site GGTGGTGCTGT)”, “GGTGTGGCATGGACCGGTTTTCCCGGTAATCCGTATTTGGT (site GGAGTGGCTAC)” is lower in “recombinant UMI read abundance (log10)” value: 2.18 for the first, 0.128 for the second.

“GGTGTGGCATGGACCGGTTTTCCCGGTAATCCGTATTTGGT (site GGCGTGGCTAC)” and “GGTGTGGCATGGACCGGTTTTCCCGGTAATCCGTATTTGGT (site GGGGTGGCTAC)” are within 0.2 log units of each other in “recombinant UMI read abundance (log10)” value: 0.0168 for the first, 0.145 for the second.

“GGTGTGGCATGGACCGGTTTTCCCGGTAATCCGTATTTGGT (site GGTGTGGCTAC)” and “GGTGTTACATGGACCGGTTTTCCCGGTAATCCGTATTTGTT (site GGTGTTACTAA)” are within 0.2 log units of each other in “recombinant UMI read abundance (log10)” value: 0.636 for the first, 0.51 for the second.

“GGTGTTCCATGGACCGGTTTTCCCGGTAATCCGTATTTGGC (site GGTGTTCCTGC)” and “GGTGTTCCATGGACCGGTTTTCCCGGTAATCCGTATTTGTT (site GGTGTTCCTAA)” are within 0.2 log units of each other in “recombinant UMI read abundance (log10)” value: 0 for the first, 0.00351 for the second.

“GGTTCCGCATGGACCGGTTTTCCCGGTAATCCGTATTTGCG (site GGTTCCGCTCG)” and “GGTTCGTCATGGACCGGTTTTCCCGGTAATCCGTATTTGTT (site GGTACGTCTAA)” are within 0.2 log units of each other in “recombinant UMI read abundance (log10)” value: 0 for the first, 0.0147 for the second.

“GGTTCGTCATGGACCGGTTTTCCCGGTAATCCGTATTTGTT (site GGTCCGTCTAA)” and “GGTTCGTCATGGACCGGTTTTCCCGGTAATCCGTATTTGTT (site GGTGCGTCTAA)” are within 0.2 log units of each other in “recombinant UMI read abundance (log10)” value: 0.0123 for the first, 0.00284 for the second.

“GGTTCGTCATGGACCGGTTTTCCCGGTAATCCGTATTTGTT (site GGTTCGTCTAA)” and “GGTTTCACATGGACCGGTTTTCCCGGTAATCCGTATTTGTA (site GGTTTCACTTA)” are within 0.2 log units of each other in “recombinant UMI read abundance (log10)” value: 0.351 for the first, 0.519 for the second.

Going from “GTAAATCCATGGACCGGTTTTCCCGGTAATCCGTATTTGGG (site GTAAATCCTCC)” to “GTAATAACATGGACCGGTTTTCCCGGTAATCCGTATTTGGG (site GTAATAACTCC)”, the “recombinant UMI read abundance (log10)” value rises from 0.325 to 0.656.

Compared with “GTAATCTCATGGACCGGTTTTCCCGGTAATCCGTATTTGTA (site GTAATCTCTTA)”, “GTACATGCATGGACCGGTTTTCCCGGTAATCCGTATTTGGT (site GTACATGCTAC)” is lower in “recombinant UMI read abundance (log10)” value: 2.83 for the first, 1.43 for the second.

“GTACATGCATGGACCGGTTTTCCCGGTAATCCGTATTTGGT (site GTCCATGCTAC)” and “GTACATGCATGGACCGGTTTTCCCGGTAATCCGTATTTGGT (site GTGCATGCTAC)” are within 0.2 log units of each other in “recombinant UMI read abundance (log10)” value: 0.0463 for the first, 0.0209 for the second.

Compared with “GTACATGCATGGACCGGTTTTCCCGGTAATCCGTATTTGGT (site GTTCATGCTAC)”, “GTACATTCATGGACCGGTTTTCCCGGTAATCCGTATTTGTG (site GTACATTCTCA)” is higher in “recombinant UMI read abundance (log10)” value: 0.184 for the first, 2.5 for the second.

First: GTACGTACATGGACCGGTTTTCCCGGTAATCCGTATTTGAC (site GTAAGTACTGT)
Second: GTACGTACATGGACCGGTTTTCCCGGTAATCCGTATTTGAC (site GTACGTACTGT)
The “recombinant UMI read abundance (log10)” value of the first is lower: 0.00784 for the first, 2.51 for the second.

“GTACGTACATGGACCGGTTTTCCCGGTAATCCGTATTTGAC (site GTAGGTACTGT)” and “GTACGTACATGGACCGGTTTTCCCGGTAATCCGTATTTGAC (site GTATGTACTGT)” are within 0.2 log units of each other in “recombinant UMI read abundance (log10)” value: 0.0679 for the first, 0.00913 for the second.

“GTACTCGCATGGACCGGTTTTCCCGGTAATCCGTATTTGCG (site GTAATCGCTCG)” and “GTACTCGCATGGACCGGTTTTCCCGGTAATCCGTATTTGCG (site GTACTCGCTCG)” are within 0.2 log units of each other in “recombinant UMI read abundance (log10)” value: 0.0162 for the first, 0.0142 for the second.

“GTACTCGCATGGACCGGTTTTCCCGGTAATCCGTATTTGCG (site GTAGTCGCTCG)” and “GTACTCGCATGGACCGGTTTTCCCGGTAATCCGTATTTGCG (site GTATTCGCTCG)” are within 0.2 log units of each other in “recombinant UMI read abundance (log10)” value: 0.00832 for the first, 0.00972 for the second.

Compared with “GTAGACGCATGGACCGGTTTTCCCGGTAATCCGTATTTGCG (site GTAGACGCTCG)”, “GTAGACGCATGGACCGGTTTTCCCGGTAATCCGTATTTGCG (site GTAGCCGCTCG)” is lower in “recombinant UMI read abundance (log10)” value: 2.33 for the first, 0.0374 for the second.

Compared with “GTAGACGCATGGACCGGTTTTCCCGGTAATCCGTATTTGCG (site GTAGGCGCTCG)”, “GTAGACGCATGGACCGGTTTTCCCGGTAATCCGTATTTGCG (site GTAGTCGCTCG)” is lower in “recombinant UMI read abundance (log10)” value: 1.39 for the first, 0.182 for the second.

First: GTAGATTCATGGACCGGTTTTCCCGGTAATCCGTATTTGTT (site GAAGATTCTAA)
Second: GTAGATTCATGGACCGGTTTTCCCGGTAATCCGTATTTGTT (site GCAGATTCTAA)
The “recombinant UMI read abundance (log10)” value of the first is lower: 0.559 for the first, 1.63 for the second.

Compared with “GTAGATTCATGGACCGGTTTTCCCGGTAATCCGTATTTGTT (site GGAGATTCTAA)”, “GTAGATTCATGGACCGGTTTTCCCGGTAATCCGTATTTGTT (site GTAGATTCTAA)” is higher in “recombinant UMI read abundance (log10)” value: 0.98 for the first, 3.02 for the second.

With “GTAGCTGCATGGACCGGTTTTCCCGGTAATCCGTATTTGTG (site ATAGCTGCTCA)” the “recombinant UMI read abundance (log10)” value was 0.436.
